Experimental data published in US9073855B2, “BCL-2 selective apoptosis-inducing agents for the treatment of cancer and immune diseases” (AbbVie Inc., priority 2008, dated 2015).

Columns and labels:
GST-Bcl-XL = GST-Bcl-XL (Homo sapiens, UniProt Q07817); test: TR-FRET binding assay, GST-Bcl-XL with F-Bak peptide probe; settings: TR-FRET Binding Affinity
Experimental: (§1) Tb-anti-GST antibody was purchased from Invitrogen (Catalog No. PV4216).
(§2) Representative compounds were serially diluted in dimethyl sulfoxide (DMSO) starting at 50 μM (2× starting concentration; 10% DMSO) and 10 μL were transferred into a 384-well plate.
(§3) The samples were then mixed on a shaker for 1 minute and incubated for an additional 3 hours at room temperature. For each assay, the probe/antibody and protein/probe/antibody were included on each assay plate as negative and positive controls, respectively. Fluorescence was measured on the ENVISION plate reader (Perkin Elmer) using a 340/35 nm excitation filter and 520/525 (F-Bak peptide) and 495/510 nm (Tb-labeled […] antibody) emission filters.
(§4) The inhibition constant (Ki) is the dissociation constant of an enzyme-inhibitor complex or a protein/small molecule complex, wherein the small molecule is inhibiting binding of one protein to another protein or peptide. […] Inhibition constants were determined using Wang's equation (Wang Z-X., An Exact Mathematical Expression For Describing Competitive Binding Of Two Different Ligands To A Protein Molecule. FEBS Lett. 1995, 360:111-4).

GST-Bcl-2 = GST-Bcl-2 (Homo sapiens, UniProt P10415); test: TR-FRET binding assay, GST-Bcl-2 with F-Bak peptide probe; settings: for Ki: TR-FRET Binding Affinity
GST-Bcl-2, sequence (P10415 whole entry): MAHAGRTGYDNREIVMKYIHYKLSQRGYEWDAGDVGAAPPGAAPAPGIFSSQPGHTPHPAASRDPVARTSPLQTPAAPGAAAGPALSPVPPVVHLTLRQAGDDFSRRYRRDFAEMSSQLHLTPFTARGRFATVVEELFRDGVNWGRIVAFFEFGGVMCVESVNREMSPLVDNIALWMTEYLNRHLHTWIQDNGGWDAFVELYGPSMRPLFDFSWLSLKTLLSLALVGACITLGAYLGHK
Experimental: as §1, §2, §3, §4

[1] = GST-Bcl-XL, F-Bak peptide probe
[2] = TR-FRET, Bcl-XL Ki divided by Bcl-2 Ki
[3] = ratio of TR-FRET Ki values, Bcl-XL over Bcl-2

GST-Bcl-XL, sequence (Q07817 whole entry): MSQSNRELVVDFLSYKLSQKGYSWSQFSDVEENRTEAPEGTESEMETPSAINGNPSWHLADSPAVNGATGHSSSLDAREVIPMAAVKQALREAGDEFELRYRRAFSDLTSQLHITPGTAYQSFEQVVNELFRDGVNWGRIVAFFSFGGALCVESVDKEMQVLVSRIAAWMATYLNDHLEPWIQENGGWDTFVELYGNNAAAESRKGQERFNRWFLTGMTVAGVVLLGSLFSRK

Row | SMILES | Ki (GST-Bcl-XL; [1]) | Ki (GST-Bcl-2; GST-Bcl-2, F-Bak peptide probe) | Ki (GST-Bcl-XL) | Ki (GST-Bcl-2) | Binding selectivity ratio (Bcl-XL Ki/Bcl-2 Ki) (GST-Bcl-2; [2]) | Binding selectivity ratio (Bcl-XL Ki/Bcl-2 Ki) (GST-Bcl-2; [3])
1 | O=C(NS(=O)(=O)c1ccc(NCC2CCOCC2)c([N+](=O)[O-])c1)c1ccc(N2CCN(Cc3ccccc3-c3ccc(Cl)cc3)CC2)cc1Oc1ccccc1 [Example 1, 4-{4-[(4′-chloro-1,1′-biphenyl-2-yl)methyl]piperazin-1-yl}-N-({3-nitro-4-[(tetrahydro-2H-pyran-4-ylmethyl)amino]phenyl}sulfonyl)-2-phenoxybenzamide] | 578 nM | 6.77 nM |  |  |  | 
2 | CC1(C)CCC(CN2CCN(c3ccc(C(=O)NS(=O)(=O)c4ccc(NC5CCN(CC(F)(F)F)CC5)c([N+](=O)[O-])c4)c(Oc4cccc5[nH]ccc45)c3)CC2)=C(c2ccc(Cl)cc2)C1 [Example 108, 4-(4-{[2-(4-chlorophenyl)-4,4-dimethylcyclohex-1-en-1-yl]methyl}piperazin-1-yl)-2-(1H-indol-4-yloxy)-N-[(3-nitro-4-{[1-(2,2,2-trifluoroethyl)piperidin-4-yl]amino}phenyl)sulfonyl]benzamide] | 59.6 nM | 2.34 nM |  |  |  | 
3 | Cc1ccc(S(=O)(=O)NC(=O)c2ccc(N3CCN(Cc4ccccc4-c4ccc(Cl)cc4)CC3)cc2Oc2ccccc2)cc1 [Example 61, 4-{4-[(4′-chloro-1,1′-biphenyl-2-yl)methyl]piperazin-1-yl}-N-[(4-methylphenyl)sulfonyl]-2-phenoxybenzamide] | > 660 nM | 52.2 nM |  |  |  | 
4 | CC1(C)CCC(CN2CCN(c3ccc(C(=O)NS(=O)(=O)c4cnc(OCC5(F)CCC(O)CC5)c(Cl)c4)c(Oc4cccc5[nH]ncc45)c3)CC2)=C(c2ccc(Cl)cc2)C1 (stereo not drawn) [Example 518, N-({5-chloro-6-[(cis-1-fluoro-4-hydroxycyclohexyl)methoxy]pyridin-3-yl}sulfonyl)-4-(4-{[2-(4-chlorophenyl)-4,4-dimethylcyclohex-1-en-1-yl]methyl}piperazin-1-yl)-2-(1H-indazol-4-yloxy)benzamide] |  |  | 2.55 nM | < 0.01 nM | >254.6 | 
5 | CC1(C)CCC(CN2CCN(c3ccc(C(=O)NS(=O)(=O)c4ccc(NCC5(F)CCOCC5)c([N+](=O)[O-])c4)c(Oc4cccc5[nH]nnc45)c3)CC2)=C(c2ccc(Cl)cc2)C1 [Example 514, 2-(1H-benzotriazol-4-yloxy)-4-(4-{[2-(4-chlorophenyl)-4,4-dimethylcyclohex-1-en-1-yl]methyl}piperazin-1-yl)-N-[(4-{[(4-fluorotetrahydro-2H-pyran-4-yl)methyl]amino}-3-nitrophenyl)sulfonyl]benzamide] |  |  | 10.4 nM | < 0.01 nM | >1041.3 | 
6 | O=C(NS(=O)(=O)c1ccc(NCCn2nccn2)c([N+](=O)[O-])c1)c1ccc(N2CCN(Cc3ccccc3-c3ccc(Cl)cc3)CC2)cc1Oc1ccccc1 [Example 165, 4-{4-[(4′-chloro-1,1′-biphenyl-2-yl)methyl]piperazin-1-yl}-N-[(3-nitro-4-{[2-(2H-1,2,3-triazol-2-yl)ethyl]amino}phenyl)sulfonyl]-2-phenoxybenzamide] | 36.6 nM | 0.823 nM |  |  |  | 
7 | CC1(C)CCC(CN2CCN(c3ccc(C(=O)NS(=O)(=O)c4cnc(OCC5CCOC5)c(Cl)c4)c(Oc4cccc5[nH]ncc45)c3)CC2)=C(c2ccc(Cl)cc2)C1 (stereo not shown) [Example 420, 4-(4-{[2-(4-chlorophenyl)-4,4-dimethylcyclohex-1-en-1-yl]methyl}piperazin-1-yl)-N-{[5-chloro-6-(tetrahydrofuran-3-ylmethoxy)pyridin-3-yl]sulfonyl}-2-(1H-indazol-4-yloxy)benzamide] | 72.1 nM | 0.063 nM |  |  |  | 1153.3
8 | CC1(C)CCC(CN2CCN(c3ccc(C(=O)NS(=O)(=O)c4cnc(OCC5CCOCC5)c(Cl)c4)c(Oc4cccc5[nH]cnc45)c3)CC2)=C(c2ccc(Cl)cc2)C1 [Example 500, 2-(1H-benzimidazol-4-yloxy)-4-(4-{[2-(4-chlorophenyl)-4,4-dimethylcyclohex-1-en-1-yl]methyl}piperazin-1-yl)-N-{[5-chloro-6-(tetrahydro-2H-pyran-4-ylmethoxy)pyridin-3-yl]sulfonyl}benzamide] |  |  | 147 nM | < 0.01 nM | >14734.0 | 
9 | CO[C@H]1CC[C@H](CNc2ccc(S(=O)(=O)NC(=O)c3ccc(N4CCN(CC5=C(c6ccc(Cl)cc6)CC(C)(C)CC5)CC4)cc3Oc3cccc4[nH]cnc34)cc2[N+](=O)[O-])CC1 [Example 440, Trans-2-(1H-benzimidazol-4-yloxy)-4-(4-{[2-(4-chlorophenyl)-4,4-dimethylcyclohex-1-en-1-yl]methyl}piperazin-1-yl)-N-[(4-{[(4-methoxycyclohexyl)methyl]amino}-3-nitrophenyl)sulfonyl]benzamide] |  |  | 45.5 nM | < 0.01 nM |  | 
10 | CN(C)CCNc1ccc(S(=O)(=O)NC(=O)c2ccc(N3CCN(Cc4ccccc4-c4ccc(Cl)cc4)CC3)cc2Oc2ccccc2)cc1[N+](=O)[O-] [Example 153, 4-{4-[(4′-chloro-1,1′-biphenyl-2-yl)methyl]piperazin-1-yl}-N-[(4-{[2-(dimethylamino)ethyl]amino}-3-nitrophenyl)sulfonyl]-2-phenoxybenzamide] | 93 nM | 0.265 nM |  |  |  | 
11 | CC1(C)CCC(CN2CCN(c3ccc(C(=O)NS(=O)(=O)c4ccc(NCC5CCOCC5)c([N+](=O)[O-])c4)c(Oc4ccc5[nH]ccc5c4)c3)CC2CO)=C(c2ccc(Cl)cc2)C1 (stereo not shown) [Example 236, 4-[4-{[2-(4-chlorophenyl)-4,4-dimethylcyclohex-1-en-1-yl]methyl}-3-(hydroxymethyl)piperazin-1-yl]-2-(1H-indol-5-yloxy)-N-({3-nitro-4-[(tetrahydro-2H-pyran-4-ylmethyl)amino]phenyl}sulfonyl)benzamide] | > 660 nM | 0.369 nM |  |  |  | 
12 | O=C(NS(=O)(=O)c1ccc(NCc2cccs2)c([N+](=O)[O-])c1)c1ccc(N2CCN(Cc3ccccc3-c3ccc(Cl)cc3)CC2)cc1Oc1ccccc1 [Example 162, 4-{4-[(4′-chloro-1,1′-biphenyl-2-yl)methyl]piperazin-1-yl}-N-({3-nitro-4-[(thien-2-ylmethyl)amino]phenyl}sulfonyl)-2-phenoxybenzamide] | 167 nM | 1.35 nM |  |  |  | 
13 | CC1(C)CCC(CN2CCN(c3ccc(C(=O)NS(=O)(=O)c4ccc(NCC5CN(S(C)(=O)=O)CCO5)c([N+](=O)[O-])c4)c(Oc4cccc5[nH]cnc45)c3)CC2)=C(c2ccc(Cl)cc2)C1 (stereo not shown) [Example 458, 2-(1H-benzimidazol-4-yloxy)-4-(4-{[2-(4-chlorophenyl)-4,4-dimethylcyclohex-1-en-1-yl]methyl}piperazin-1-yl)-N-{[4-({[4-(methylsulfonyl)morpholin-2-yl]methyl}amino)-3-nitrophenyl]sulfonyl}benzamide] |  |  | 2.37 nM | < 0.01 nM | 237.2 | 
14 | CN1CCC(Nc2ccc(S(=O)(=O)NC(=O)c3ccc(N4CCN(CC5=C(c6ccc(Cl)cc6)CC(C)(C)CC5)CC4)cc3Oc3cccc4c3CCN4)cc2[N+](=O)[O-])CC1 [Example 395, 4-(4-{[2-(4-chlorophenyl)-4,4-dimethylcyclohex-1-en-1-yl]methyl}piperazin-1-yl)-2-(2,3-dihydro-1H-indol-4-yloxy)-N-({4-[(1-methylpiperidin-4-yl)amino]-3-nitrophenyl}sulfonyl)benzamide] | 18.8 nM | 0.798 nM |  |  |  | 23.6
